Reference: publication PMC9221509, “Discovery of a Novel Antimicrobial Peptide, Temporin-PKE, from the Skin Secretion of Pelophylax kl. esculentus, and Evaluation of Its Structure-Activity Relationships” (Biomolecules, 2022)
Where two headings read alike, the source gives them in different places. No end group written: not given here.

Key:
[1] = test system: K. pneumoniae (ATCC 43816); format: cell-based, Klebsiella pneumoniae; conditions: ATCC 43816, 24 h
Experimental: (§1) The antimicrobial activities of peptides were evaluated against the Gram-positive bacteria, S. aureus (ATCC 6538), methicillin-resistant Staphylococcus aureus (MRSA) (NCTC 12493), Enterococcus faecalis (E. faecalis) (NCTC 12697); the Gram-negative bacteria, E. coli (ATCC CRM 8739), Klebsiella pneumoniae (K. pneumoniae) (ATCC 43816), Pseudomonas aeruginosa (P. aeruginosa) (ATCC CRM 9027); and the yeast, Candida albicans (C. albicans) (ATCC CRM 10231). Clinical isolates of MRSA (B042 V2E1 A), E. coli (ATCC BAA-2340), K. pneumoniae (ATCC BAA-1705), and P. aeruginosa (B004 V2S2 B) were also used to determine their antimicrobial activities. The suspension of microorganisms in the logarithmic growth phase with a specific final density (Gram-negative and Gram-positive bacteria: 5 × 10^5 CFU/mL; yeast: 1 × 10^6 CFU/mL) was incubated with different peptide concentrations from 1 µM to 512 µM at 37 °C for 24 h. PBS was used as the negative control, and norfloxacin and amphotericin B were selected as the positive control for bacteria and yeast, respectively. Since the Norfloxacin had weak activities against P. aeruginosa (B004 V2S2 B) and K. pneumoniae (ATCC BAA 1705), gentamicin was used as the positive control for these two bacterial strains. The absorbance of each well was obtained using a microplate reader (EL808, Biolise BioTek, Winooski, VT, USA) set at 550 nm wavelength. The MIC value was the lowest concentration of a peptide that inhibits visible bacterial growth. Once the MIC values were determined, an aliquot from the bacterial culture exposed to the peptide at or above its MIC value was inoculated on a Mueller Hinton agar (MHA) and was incubated at 37 for 18 h. The MBC value was the lowest concentration of a peptide that kills 99.9% of bacteria.
(§2) According to the procedures in a previous article, the analysis of the sensitivity of the peptides was determined by measuring MIC values in the presence of different types of salts and 10% fetal bovine serum. MRSA (NCTC 12493) and K. pneumoniae (ATCC 43816) were selected as the subjects of these assays. Various salts at different concentrations, including 150 mM NaCl, 4.5 mM KCl, 6 μM NH4Cl, 1 mM MgCl2, […], […], and 10% serum (Gibco, Auckland, New Zealand), were added to the MHB medium for the examination of the MIC values which were determined as described in Section 2.7.

MRSA (NCTC 12493) = format: cell-based, methicillin-resistant Staphylococcus aureus; conditions: NCTC 12493, 24 h
Experimental: as §1, §2

E. faecalis (NCTC 12697) = experiment: microbe, parasite or virus in culture; format: cell-based, Enterococcus faecalis; conditions: for MBC: NCTC 12697, 18 h; for MIC: NCTC 12697, 24 h
Experimental: as §1

[2] = test system: E. faecalis (NCTC 12697) biofilm; format: cell-based, Enterococcus faecalis; conditions: NCTC 12697, 24 h
Experimental: The anti-biofilm activities of the peptides against S. aureus (ATCC 6538), MRSA (NCTC 12493), E. faecalis (NCTC 12697), E. coli (ATCC CRM 8739), K. pneumoniae (ATCC 43816), and P. aeruginosa (ATCC CRM 9027), were evaluated. For the MBIC assay, 99 µL of bacterial suspension (5 × 10^5 CFU/mL) was mixed with 1 µL of serial dilutions (from 100 µM to 51,200 µM) of temporin-PKE and its analogues in a 96-well plate, and the plate was incubated in a moist shaking incubator at a speed of 200 rpm at 37 °C for 24 h. For the MBEC assay, 100 µL of bacterial suspension (5 × 10^5 CFU/mL) in each well was seeded in a new 96-well plate, and the plate was put into the same shaking incubator for 24 h incubation to allow biofilm formation on the well. After biofilm formation, the biofilm in the plate was washed with PBS twice. The PBS was aspirated between washes to remove planktonic bacterial cells. The washed biofilm in each well was treated with 100 µL of serial dilutions (from 1 µM to 512 µM) of the test peptides. Then, the plate was incubated in the same shaking incubator for another 24 h. After being washed by PBS twice and fixed with methanol, the biofilm in each well was incubated with 100 µL of 0.1% crystal violet for 30 min, and the stained biofilm was dissolved in 100 µL of glacial acidic acid after drying. The solutions were transferred to a new microplate, and the absorbance of each well was measured using a microplate reader (EL808, Biolise BioTek, Winooski, VT, USA) set to 595 nm wavelength. The MBIC was the minimum concentration of the peptide showing no biofilm formation. The MBEC is the lowest concentration of the peptide capable of eradicating the mature biofilms, which had no biofilm in the well.

horse red blood cells = format: cell-based
Experimental: As a previous study described in detail, the haemolysis activity assays of peptides were conducted on defibrinated horse blood (TCS Biosciences Ltd., Buckingham, UK) with an erythrocyte suspension concentration of 2% (v/v). The 120 μL of peptide solution in a gradient concentration ranging from 1µM to 512 µM was mixed with the same volume of 2% horse red blood cell suspension, and the complex was incubated at 37 °C for 2 h. PBS and 0.1% Triton X-100 were chosen as the negative and positive control, respectively. After centrifugation at 900× g for 5 min, the absorbance of the supernatant was analysed using a microplate reader (EL808, Biolise BioTek, Winooski, VT, USA) set to a wavelength of 570 nm. The equation to calculate the haemolysis of the peptides is shown below: Haemolysis (%)=A−An/Ap−An×100% where A represents the absorbance of each treatment group, An represents the average absorbance of the negative control group, and Ap represents the average absorbance of the positive control group.

[3] = test system: K. pneumoniae (ATCC 43816); experiment: microbe, parasite or virus in culture; format: cell-based, Klebsiella pneumoniae; conditions: for MBC: ATCC 43816, 18 h, read-out: MBC; for MIC: ATCC 43816, 24 h, read-out: MIC
Experimental: as §1

[4] = test system: K. pneumoniae (ATCC BAA-1705); experiment: microbe, parasite or virus in culture; format: cell-based, Klebsiella pneumoniae; conditions: for MBC: ATCC BAA-1705, 18 h; for MIC: ATCC BAA-1705, 24 h
Experimental: as §1

Substance	MIC against K. pneumoniae in the presence of 4 µM FeCl3 [1]	MIC against K. pneumoniae in the presence of 6 µM NH4Cl [1]	MIC against K. pneumoniae in the presence of 8 µM ZnCl2 [1]	MIC against K. pneumoniae in the presence of 1 mM MgCl2 [1]	MIC against K. pneumoniae in the presence of 2 mM CaCl2 [1]	MIC against K. pneumoniae in the presence of 4.5 mM KCl [1]	MIC against K. pneumoniae in the presence of 150 mM NaCl [1]	MIC against K. pneumoniae in the presence of 10% FBS [1]	MIC against K. pneumoniae, Negative [1]	MIC against MRSA in the presence of 4 µM FeCl3 (MRSA (NCTC 12493))	MIC against MRSA in the presence of 6 µM NH4Cl (MRSA (NCTC 12493))	MIC against MRSA in the presence of 8 µM ZnCl2 (MRSA (NCTC 12493))	MIC against MRSA in the presence of 1 mM MgCl2 (MRSA (NCTC 12493))	MIC against MRSA in the presence of 2 mM CaCl2 (MRSA (NCTC 12493))	MIC against MRSA in the presence of 4.5 mM KCl (MRSA (NCTC 12493))	MIC against MRSA in the presence of 150 mM NaCl (MRSA (NCTC 12493))	MIC against MRSA in the presence of 10% FBS (MRSA (NCTC 12493))	MIC against MRSA, Negative (MRSA (NCTC 12493))	MBC (E. faecalis (NCTC 12697))	MIC (E. faecalis (NCTC 12697))	also measured
FLPLIIGALSSKLPKIF-NH2 [Temporin-PKE-K12]	32 µM	32 µM	64 µM	128 µM	256 µM	32 µM	128 µM	128 µM	32 µM	8 µM	8 µM	32 µM	16 µM	16 µM	32 µM	32 µM	32 µM	4 µM	8 µM	8 µM	MBIC [2]: 64 µM; HC50 (horse red blood cells): 122.7 µM; HC50 (horse red blood cells; red cells of horse, 2 h): 122.7 µM; MBC [3]: 64 µM; MIC [3]: 32 µM; MBC [4]: 64 µM; MIC [4]: 64 µM
FLPLIIGKLSSLLPKIF-NH2 [Temporin-PKE-2K]	16 µM	16 µM	16 µM	32 µM	32 µM	16 µM	128 µM	64 µM	16 µM	2 µM	4 µM	16 µM	4 µM	4 µM	4 µM	8 µM	8 µM	2 µM	2 µM	2 µM	MBIC [2]: 16 µM; HC50 relative to that of temporin-PKE (horse red blood cells): 3 fold; HC50 (horse red blood cells; red cells of horse, 2 h): 19.87 µM; MBC [3]: 32 µM; MIC [3]: 16 µM; MBC [4]: 16 µM; MIC [4]: 16 µM
FLPLIIGALSSLLPKIF-NH2 [Temporin-PKE]	>512 µM	>512 µM	>512 µM	>512 µM	>512 µM	>512 µM	>512 µM	>512 µM	>512 µM	8 µM	8 µM	32 µM	8 µM	8 µM	8 µM	8 µM	16 µM	2 µM	8 µM	8 µM	MBIC [2]: 32 µM; HC50 (horse red blood cells): 6.58 µM; HC50 (horse red blood cells; red cells of horse, 2 h): 6.58 µM; MBC [3]: >512 µM; MIC [3]: >512 µM; MBC ([4]; read-out: MBC): >512 µM; MIC ([4]; read-out: MIC): >512 µM
